Experimental findings from patent US20240115557A1, “INHIBITORS OF RNA-GUIDED NUCLEASES AND USES THEREOF” (The Brigham and Women's Hospital, Inc., priority 2022, published 2024) are described below.

The target of the assay is SpCas9 (Streptococcus pyogenes serotype M1, UniProt Q99ZW2). The assay can be described thus: eGFP disruption assay, SpCas9, U2OS.eGFP.PEST cells. The class given is cell-based. The conditions noted are these: for Normalized Z rep1 / Z score Rep1: replicate 1; for SpCas9 eGFP disruption Rep1: replicate 1, raw readout; for Normalized Z rep2 / Z socre Rep2: replicate 2; for SpCas9 eGFP disruption Rep2: replicate 2, raw readout. From the text:
In some embodiments, the secondary assay may be an EGFP disruption assay. In such assay, a quantitative human cell-based reporter assay that enables rapid quantitation of targeted nuclease activities is used to characterize off-target cleavage of Cas9-based RNA guided endonucleases. In this assay, the activities of nucleases targeted to a single integrated EGFP reporter gene can be quantified by assessing loss of fluorescence signal in human U2OS.EGFP cells caused by inactivating frameshift insertion/deletion (indel) mutations introduced by error prone non-homologous end-joining (NHEJ) repair of nuclease-induced double-stranded breaks (DSBs).
In one protocol, U2OS.EGFP cells harboring a single integrated copy of an EGFP-PEST fusion gene are cultured (see e.g., Reyon et al., Nat Biotech 30, 460-465 (2012), which is herein incorporated by reference in its entirety). For transfections, 200,000 cells are Nucleofected with gRNA expression plasmid and pJDS246 together with 30 ng of a Td-tomato-encoding plasmid using the SE Cell Line 4D-Nucleofector™ X Kit (Lonza) according to the manufacturer's protocol. Cells are analyzed 2 days post-transfection using a BD LSRII flow cytometer. Transfections for optimizing gRNA/Cas9 plasmid concentration are performed in triplicate and all other transfections are performed in duplicate. PCR amplification is used for sequence verification of endogenous human genomic sites. PCR reactions are performed using Phusion Hot Start II high-fidelity DNA polymerase (NEB). Loci are amplified using touchdown PCR (98° C., 10 s; 72-62° C., −1° C./cycle, 15s; 72° C., 30 s] 10 cycles, [98° C., 10s; 62° C., 15s; 72° C., 30 s] 25 cycles). Alternatively, PCR for other targets is performed with 35 cycles at a constant annealing temperature of 68° C. or 72° C., and 3% DMSO or IM betaine, if necessary. PCR products are analyzed on a QIAXCEL capillary electrophoresis system to verify both size and purity. Validated products are treated with ExoSap-IT (Affymetrix) and sequenced by the Sanger method (MGH DNA Sequencing Core) to verify each target site.
Primary and secondary screening. The primary screen assayed a selection of unique chemical scaffolds derived from commercially available compounds and known bioactive molecular libraries (Table 7). Auto-fluorescent compounds were removed by a counter screen. Overall, the CAA was used to assay 122,409 small molecules with over 2,500 unique chemical scaffolds (FIG. 64F, Table 7). Of these compounds, 547 were selected as hits (Z score >3 in both replicates) for testing in orthogonal cell-based secondary assays. Hits were tested in duplicate in an eGFP disruption assay, wherein U2OS.eGFP.PEST cells^33 transfected with SpCas9 plasmid and eGFP-targeting gRNA plasmid were incubated with 20 μM of the compounds. In this assay, any compound that inhibited SpCas9 would rescue the loss of eGFP fluorescence. Here, toxic and auto-fluorescent compounds with a high GFP signal in cells were removed as false positives. […] Next, Applicants tested the 15 compounds in a luminescence-based gain-of-signal HiBiT knock-in assay, which involves SpCas9-mediated homology-directed tagging of GAPDH with a short peptide that luminesces upon complementation with a subunit derived from nanoluciferase.^34 Complementarily, the eGFP-disruption assay is fluorescence-based and involves error-prone DNA repair. As a counter-screen to remove false positives caused by cell death (viability <80%), the cell viability was measured after incubation.
For SAR studies and dose-response studies, 300,000 U2OS.eGFP.PEST cells were nucleofected with 300 ng of SpCas9 plasmid (Addgene #43861) and 30 ng of eGFP-targeting gRNA plasmid (Addgene #47511)^33 using SE Cell Line 4D-Nucleofector X Kit (Lonza) following the pulse program of DN-100. For RNP-based genome editing, 10 pmol of SpCas9 (GenScript #Z03385) and 12 pmol of gRNA were mixed and incubated for 5 min. […]

The mark [1] stands for this setting: Cas9 = lower control, Ctrl = upper control.
Where [2] appears, read: normalized, lower control about 0, upper control about 1.

SMILES strings stand for the structures.

Chain of SpCas9 (Q99ZW2 whole entry): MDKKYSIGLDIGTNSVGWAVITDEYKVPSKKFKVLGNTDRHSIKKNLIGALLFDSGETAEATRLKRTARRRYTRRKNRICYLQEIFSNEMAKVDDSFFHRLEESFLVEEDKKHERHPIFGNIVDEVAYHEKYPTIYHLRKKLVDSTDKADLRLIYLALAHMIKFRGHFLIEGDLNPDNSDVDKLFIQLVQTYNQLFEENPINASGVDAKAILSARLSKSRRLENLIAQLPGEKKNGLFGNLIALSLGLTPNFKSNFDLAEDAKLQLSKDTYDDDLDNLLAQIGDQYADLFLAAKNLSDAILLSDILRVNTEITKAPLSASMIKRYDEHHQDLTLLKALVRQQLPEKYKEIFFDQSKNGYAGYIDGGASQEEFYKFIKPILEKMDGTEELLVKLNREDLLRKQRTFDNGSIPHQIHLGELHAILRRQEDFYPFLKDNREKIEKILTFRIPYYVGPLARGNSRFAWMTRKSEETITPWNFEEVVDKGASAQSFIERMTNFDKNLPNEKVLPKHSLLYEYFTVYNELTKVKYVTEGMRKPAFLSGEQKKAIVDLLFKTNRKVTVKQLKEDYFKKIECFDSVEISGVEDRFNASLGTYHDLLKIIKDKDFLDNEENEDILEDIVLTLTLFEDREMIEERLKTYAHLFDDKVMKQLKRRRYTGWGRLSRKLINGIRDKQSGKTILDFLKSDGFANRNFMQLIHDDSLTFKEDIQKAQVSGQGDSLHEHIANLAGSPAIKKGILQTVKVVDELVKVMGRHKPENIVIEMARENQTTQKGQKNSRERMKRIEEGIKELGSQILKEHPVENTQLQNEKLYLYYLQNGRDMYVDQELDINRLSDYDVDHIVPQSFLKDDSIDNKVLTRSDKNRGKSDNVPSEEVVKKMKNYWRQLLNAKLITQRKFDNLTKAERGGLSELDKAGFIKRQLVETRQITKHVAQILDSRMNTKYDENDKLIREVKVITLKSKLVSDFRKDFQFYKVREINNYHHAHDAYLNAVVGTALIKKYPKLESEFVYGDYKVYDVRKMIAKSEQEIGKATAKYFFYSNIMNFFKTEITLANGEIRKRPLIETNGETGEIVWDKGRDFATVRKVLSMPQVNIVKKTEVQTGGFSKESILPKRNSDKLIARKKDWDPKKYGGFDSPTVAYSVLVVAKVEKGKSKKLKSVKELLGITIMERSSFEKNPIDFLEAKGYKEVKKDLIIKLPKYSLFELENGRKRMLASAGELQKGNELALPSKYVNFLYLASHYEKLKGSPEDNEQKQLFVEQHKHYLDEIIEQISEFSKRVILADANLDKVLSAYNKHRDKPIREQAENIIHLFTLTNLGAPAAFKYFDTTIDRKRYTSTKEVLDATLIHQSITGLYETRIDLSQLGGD

For `COc1ccc(-c2nnc3sc(-c4cccnc4)nn23)cc1OC` [Compound D727-0025], the “Normalized Z rep1” value is on record as −0.28, the “Z score Rep1” value is −2.04, the “SpCas9 eGFP disruption Rep1” value came to 60.269 and the “Normalized Z rep2” value is reported as −0.11. Further, the “Z socre Rep2” value is on record as −1.05 and the “SpCas9 eGFP disruption Rep2” value is on record as 59.908.

On to `Cc1ccc(-c2nn3c(-c4cccnc4)nnc3s2)cc1` [Compound D727-0047], for which the “Normalized Z rep1” value is on record as −0.34, the “Z score Rep1” value is given as −2.47, the “SpCas9 eGFP disruption Rep1” value is on record as 58.846 and the “Normalized Z rep2” value is recorded as −0.29. The “Z socre Rep2” value was −2.72 and the “SpCas9 eGFP disruption Rep2” value was 54.891.

`Brc1cccc(-c2nn3c(-c4cccnc4)nnc3s2)c1` [Compound D727-0051]: the “Normalized Z rep1” value amounted to 0.02, the “Z score Rep1” value was 0.13, the “SpCas9 eGFP disruption Rep1” value was 67.429 and the “Normalized Z rep2” value worked out at 0.08. The “Z socre Rep2” value was 0.79 and the “SpCas9 eGFP disruption Rep2” value is 65.459.

With `c1cncc(-c2nnc3sc(Cc4ccc5c(c4)OCCO5)nn23)c1` [Compound D727-0088], the “Normalized Z rep1” value is −0.24, the “Z score Rep1” value is listed as −1.77, the “SpCas9 eGFP disruption Rep1” value is 61.161 and the “Normalized Z rep2” value is −0.08. The “Z socre Rep2” value is on record as −0.75 and the “SpCas9 eGFP disruption Rep2” value is on record as 60.83.

Take `COc1ccc(Cc2nnc3sc(-c4ccccc4OC)nn23)cc1` [Compound D727-0159]: the “Normalized Z rep1” value was −0.57, the “Z score Rep1” value is on record as −4.09, the “SpCas9 eGFP disruption Rep1” value is listed as 53.496 and the “Normalized Z rep2” value is given as −0.23. The “Z socre Rep2” value is on record as −2.11 and the “SpCas9 eGFP disruption Rep2” value was 56.714.

Take `Cc1nc2ccccc2n1Cc1nnc2sc(-c3cccnc3)nn12` [Compound D727-0182]: the “Normalized Z rep1” value is on record as −0.45, the “Z score Rep1” value is recorded as −3.22, the “SpCas9 eGFP disruption Rep1” value is 56.36 and the “Normalized Z rep2” value turned out to be 0.14. The “Z socre Rep2” value came out at 1.30 and the “SpCas9 eGFP disruption Rep2” value was 67.01.

With `Fc1cccc(-c2nnc3sc(CCCc4ccccc4)nn23)c1` [Compound D727-0404], the “Normalized Z rep1” value is given as −0.14, the “Z score Rep1” value was −0.99, the “SpCas9 eGFP disruption Rep1” value came to 63.741 and the “Normalized Z rep2” value is −0.34. Further, the “Z socre Rep2” value is −3.13 and the “SpCas9 eGFP disruption Rep2” value is 53.633.

For `Brc1cccc(-c2nn3c(-c4ccccn4)nnc3s2)c1` [Compound D727-0489], the “Normalized Z rep1” value was −0.24, the “Z score Rep1” value was −1.76, the “SpCas9 eGFP disruption Rep1” value is on record as 61.183 and the “Normalized Z rep2” value was −0.06. Besides, the “Z socre Rep2” value is recorded as −0.58 and the “SpCas9 eGFP disruption Rep2” value is 61.347.

Take `Clc1ccccc1OCc1nn2c(-c3ccccn3)nnc2s1` [Compound D727-0524]: the “Normalized Z rep1” value was −0.39, the “Z score Rep1” value is reported as −2.83, the “SpCas9 eGFP disruption Rep1” value came out at 57.663 and the “Normalized Z rep2” value is −0.16. In addition, the “Z socre Rep2” value is on record as −1.47 and the “SpCas9 eGFP disruption Rep2” value is given as 58.659.

With `c1ccc(-c2nnc3sc(-c4ccc5c(c4)OCO5)nn23)nc1` [Compound D727-0536], the “Normalized Z rep1” value was −0.16, the “Z score Rep1” value is listed as −1.18, the “SpCas9 eGFP disruption Rep1” value is reported as 63.106 and the “Normalized Z rep2” value is listed as −0.09. Besides, the “Z socre Rep2” value is −0.86 and the “SpCas9 eGFP disruption Rep2” value amounted to 60.482.

Turning to `COc1ccc(CCc2nnc3sc(-c4ccncc4)nn23)cc1OC` [Compound D727-0712], the “Normalized Z rep1” value is recorded as −0.16, the “Z score Rep1” value is given as −1.13, the “SpCas9 eGFP disruption Rep1” value came out at 63.284 and the “Normalized Z rep2” value is −0.29. Besides, the “Z socre Rep2” value is on record as −2.66 and the “SpCas9 eGFP disruption Rep2” value came out at 55.062.

In the case of `Cc1nn(-c2ccccc2)c(C)c1CCc1nnc2sc(-c3ccccc3F)nn12` [Compound D727-0713], the “Z score Rep1” value was found to be 0.38 and the “Z socre Rep2” value worked out at 1.08. Moreover, under setting [1], the “SpCas9 eGFP disruption Rep1” value came out at 68.26 and the “SpCas9 eGFP disruption Rep2” value was found to be 66.347. Besides, under setting [2], the “Normalized Z rep1” value stood at 0.05 and the “Normalized Z rep2” value came out at 0.12.

With `COc1ccc(-c2nn3c(-c4ccc5ccccc5n4)nnc3s2)cc1OC` [Compound D727-0743], the “Normalized Z rep1” value is reported as −0.03, the “Z score Rep1” value is listed as −0.23, the “SpCas9 eGFP disruption Rep1” value turned out to be 66.254 and the “Normalized Z rep2” value is recorded as −0.13. Further, the “Z socre Rep2” value is −1.19 and the “SpCas9 eGFP disruption Rep2” value turned out to be 59.503.

For `CN(C)c1cccc(-c2nn3c(-c4ccc5ccccc5c4)nnc3s2)c1` [Compound D727-0754], the “Normalized Z rep1” value is −0.15, the “Z score Rep1” value is −1.06, the “SpCas9 eGFP disruption Rep1” value amounted to 63.517 and the “Normalized Z rep2” value is −0.59. Also, the “Z socre Rep2” value is on record as −5.54 and the “SpCas9 eGFP disruption Rep2” value is given as 46.376.

Turning to `CN(C)c1ccc(-c2nn3c(-c4ccc5ccccc5n4)nnc3s2)cc1` [Compound D727-0755], the “Normalized Z rep1” value is on record as −0.11, the “Z score Rep1” value is reported as −0.83, the “SpCas9 eGFP disruption Rep1” value is recorded as 64.271 and the “Normalized Z rep2” value is −0.09. The “Z socre Rep2” value is on record as −0.79 and the “SpCas9 eGFP disruption Rep2” value came to 60.694.

As to `Cc1nn(-c2ccccc2)c(C)c1CCc1nn2c(-c3cccc(F)c3)nnc2s1` [Compound D727-0828], the “Normalized Z rep1” value was −0.36, the “Z score Rep1” value was −2.61, the “SpCas9 eGFP disruption Rep1” value turned out to be 58.376 and the “Normalized Z rep2” value is reported as −0.14. Besides, the “Z socre Rep2” value was −1.34 and the “SpCas9 eGFP disruption Rep2” value is reported as 59.045.

`Cc1nn(-c2ccccc2)c(C)c1CCc1nn2c(-c3ccncc3)nnc2s1` [Compound D727-0837]: the “Normalized Z rep1” value is −0.15, the “Z score Rep1” value is reported as −1.06, the “SpCas9 eGFP disruption Rep1” value was 63.496 and the “Normalized Z rep2” value was −0.11. The “Z socre Rep2” value is given as −1.05 and the “SpCas9 eGFP disruption Rep2” value is listed as 59.923.

Turning to `Cc1nn(-c2ccccc2)c(C)c1CCc1nn2c(-c3cnccn3)nnc2s1` [Compound D727-0838], the “Normalized Z rep1” value is recorded as −0.12, the “Z score Rep1” value was −0.86, the “SpCas9 eGFP disruption Rep1” value is 64.17 and the “Normalized Z rep2” value is recorded as −0.21. Besides, the “Z socre Rep2” value is on record as −1.92 and the “SpCas9 eGFP disruption Rep2” value turned out to be 57.281.

For `Fc1ccc(-c2nn3c(-c4ccncc4)nnc3s2)cc1Br` [Compound D727-0883], the “Normalized Z rep1” value is listed as −0.13, the “Z score Rep1” value is reported as −0.93, the “SpCas9 eGFP disruption Rep1” value was found to be 63.924 and the “Normalized Z rep2” value is −0.09. In addition, the “Z socre Rep2” value is −0.88 and the “SpCas9 eGFP disruption Rep2” value was 60.422.
